Source: patent US20170190671A1, “BIS(ARYL)CATECHOL DERIVATIVES AS HERBICIDES” (E I DU PONT DE NEMOURS AND COMPANY, priority 2014, published 2017)

What was measured:
Format in all cases: in vivo
[1] = test system: Italian ryegrass (Lolium multiflorum); test: Test C preemergence; settings: Lolium multiflorum, pre-emergence, 336 h, preemergence, scale 0 to 100, read-out: Plant response rating, Ryegrass, Italian
In short: (§1)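 Visual ratings (0 none to 100 complete control) were made 13 to 15 days after treatment, relative to controls. Test chemicals, formulated in a non-phytotoxic solvent mixture with surfactant, were applied in the greenhouse preemergence to seeded loam-sand soil or postemergence to plants 2 to 18 cm tall.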

[2] = test system: blackgrass (Alopecurus myosuroides); test: Test C preemergence; settings: Alopecurus myosuroides, pre-emergence, 336 h, preemergence, scale 0 to 100, read-out: Plant response rating, Blackgrass
In short: as §1

[3] = test system: corn (Zea mays); test: Test C preemergence; settings: Zea mays, pre-emergence, 336 h, preemergence, scale 0 to 100
In short: as §1

[4] = test system: galium (catchweed bedstraw, Galium aparine); test: Test C preemergence; settings: Galium, pre-emergence, 336 h, preemergence, scale 0 to 100, read-out: Plant response rating, Galium
In short: as §1

[5] = test system: giant foxtail (Setaria faberii); test: Test C preemergence; settings: Setaria faberi, pre-emergence, 336 h, preemergence, scale 0 to 100, read-out: Plant response rating, Foxtail, Giant
In short: as §1

[6] = test system: johnsongrass (Sorghum halepense); test: Test C preemergence; settings: Sorghum halepense, pre-emergence, 336 h, preemergence, scale 0 to 100, read-out: Plant response rating, Johnsongrass
In short: as §1

[7] = test system: large (Lg) crabgrass (Digitaria sanguinalis); test: Test C preemergence; settings: Digitaria sanguinalis, pre-emergence, 336 h, preemergence, scale 0 to 100, read-out: Plant response rating, Crabgrass, Large
In short: as §1

[8] = test system: morningglory (Ipomoea coccinea); test: Test C preemergence; settings: Ipomoea, pre-emergence, 336 h, preemergence, scale 0 to 100, read-out: Plant response rating, Morningglory
In short: as §1

[9] = test system: oilseed rape (Brassica napus); test: Test C preemergence; settings: Brassica napus, pre-emergence, preemergence, scale 0 to 100, read-out: Plant response rating, Oilseed Rape
In short: as §1

[10] = test system: pigweed (Amaranthus retroflexus); test: Test C preemergence; settings: Amaranthus retroflexus, pre-emergence, 336 h, preemergence, scale 0 to 100, read-out: Plant response rating, Pigweed
In short: as §1

[11] = test system: ragweed (common ragweed, Ambrosia elatior); test: Test C preemergence; settings: Ambrosia artemisiifolia, pre-emergence, 336 h, preemergence, scale 0 to 100, read-out: Plant response rating, Ragweed
In short: as §1

[12] = test system: soybean (Glycine max); test: Test C preemergence; settings: Glycine max, pre-emergence, preemergence, scale 0 to 100, read-out: Plant response rating, Soybean
In short: as §1

[13] = test system: velvetleaf (Abutilon theophrasti); test: Test C preemergence; settings: Abutilon theophrasti, pre-emergence, preemergence, scale 0 to 100, read-out: Plant response rating, Velvetleaf
In short: as §1

[14] = test system: waterhemp (common waterhemp, Amaranthus rudis); test: Test C preemergence; settings: Amaranthus tuberculatus, pre-emergence, preemergence, scale 0 to 100, read-out: Plant response rating, Waterhemp
In short: as §1

[15] = test system: winter wheat (Triticum aestivum); test: Test C preemergence; settings: Triticum aestivum, pre-emergence, 336 h, preemergence, scale 0 to 100, read-out: Plant response rating, Wheat
In short: as §1

[16] = test system: yellow nutsedge (Cyperus esculentus); test: Test C preemergence; settings: Cyperus, pre-emergence, 336 h, preemergence, scale 0 to 100, read-out: Plant response rating, Nutsedge, Yellow
In short: as §1

[17] = test system: blackgrass (Alopecurus myosuroides); test: Test C postemergence; settings: Alopecurus myosuroides, post-emergence, 336 h, Postemergence, scale 0 to 100, read-out: Plant response rating, Blackgrass
In short: as §1

[18] = test system: chickweed (common chickweed, Stellaria media); test: Test C postemergence; settings: Stellaria media, post-emergence, Postemergence, scale 0 to 100, read-out: Plant response rating, Chickweed
In short: as §1

[19] = test system: giant foxtail (Setaria faberii); test: Test C postemergence; settings: Setaria faberi, post-emergence, 336 h, Postemergence, scale 0 to 100, read-out: Plant response rating, Foxtail, Giant
In short: as §1

[20] = test system: lambsquarters (Chenopodium album); test: Test C postemergence; settings: Chenopodium album, post-emergence, 336 h, Postemergence, scale 0 to 100, read-out: Plant response rating, Lambsquarters
In short: as §1

[21] = test system: velvetleaf (Abutilon theophrasti); test: Test C postemergence; settings: Abutilon theophrasti, post-emergence, Postemergence, scale 0 to 100, read-out: Plant response rating, Velvetleaf
In short: as §1

[22] = test system: yellow nutsedge (Cyperus esculentus); test: Test C postemergence; settings: Cyperus, post-emergence, 336 h, Postemergence, scale 0 to 100, read-out: Plant response rating, Nutsedge, Yellow
In short: as §1

In the case of `Clc1cnc(Oc2cccc(Cl)c2Oc2ncc(Br)cn2)nc1` [Compound 17, 5-bromo-2-[2-chloro-6-[(5-chloro-2-pyrimidinyl)oxy]phenoxy]pyrimidine], the pest or weed control at 31 g/ha ([1]; 31 g ai/ha) is reported as 20%, the pest or weed control at 62 g/ha ([1]; 62 g ai/ha) is reported as 40% and the pest or weed control at 125 g/ha ([1]; 125 g ai/ha) is reported as 90%. The pest or weed control at 250 g/ha ([1]; 250 g ai/ha) was 95%, the pest or weed control at 31 g/ha ([2]; 31 g ai/ha) was 60% and the pest or weed control at 62 g/ha ([2]; 62 g ai/ha) was 90%. It also gave a pest or weed control at 125 g/ha ([2]; 125 g ai/ha) of 95%, a Corn plant response rating (crop injury, 0 = no effect, 100 = complete kill) at 31 g/ha ([3]; 31 g ai/ha) of 0% and a Corn plant response rating (crop injury, 0 = no effect, 100 = complete kill) at 62 g/ha ([3]; 62 g ai/ha) of 15%. The Corn plant response rating (crop injury, 0 = no effect, 100 = complete kill) at 125 g/ha ([3]; 125 g ai/ha) was 55%, the pest or weed control at 31 g/ha ([4]; 31 g ai/ha) was 90% and the pest or weed control at 62 g/ha ([4]; 62 g ai/ha) was 98%. The pest or weed control at 125 g/ha ([4]; 125 g ai/ha) was 100%, the pest or weed control at 31 g/ha ([5]; 31 g ai/ha) was 95% and the pest or weed control at 62 g/ha ([5]; 62 g ai/ha) was 100%. The pest or weed control at 125 g/ha ([5]; 125 g ai/ha) was 100%, the pest or weed control at 31 g/ha ([6]; 31 g ai/ha) was 10% and the pest or weed control at 62 g/ha ([6]; 62 g ai/ha) was 50%. The pest or weed control at 125 g/ha ([6]; 125 g ai/ha) was 85%, the pest or weed control at 31 g/ha ([7]; 31 g ai/ha) was 100% and the pest or weed control at 62 g/ha ([7]; 62 g ai/ha) was 100%. It also gave a pest or weed control at 125 g/ha ([7]; 125 g ai/ha) of 100%, a pest or weed control at 31 g/ha ([8]; 31 g ai/ha) of 40% and a pest or weed control at 62 g/ha ([8]; 62 g ai/ha) of 60%. For the same compound, the pest or weed control at 125 g/ha ([8]; 125 g ai/ha) was 98%, the plant injury at 31 g/ha ([9]; 31 g ai/ha) was 85% and the plant injury at 62 g/ha ([9]; 62 g ai/ha) was 90%. For the same compound, the plant injury at 125 g/ha ([9]; 125 g ai/ha) was 100%, the plant injury at 250 g/ha ([9]; 250 g ai/ha) was 98% and the pest or weed control at 31 g/ha ([10]; 31 g ai/ha) was 100%. It also gave a pest or weed control at 62 g/ha ([10]; 62 g ai/ha) of 100%, a pest or weed control at 125 g/ha ([10]; 125 g ai/ha) of 100% and a pest or weed control at 31 g/ha ([11]; 31 g ai/ha) of 0%. For the same compound, the pest or weed control at 62 g/ha ([11]; 62 g ai/ha) was 25%, the pest or weed control at 125 g/ha ([11]; 125 g ai/ha) was 55% and the pest or weed control at 250 g/ha ([11]; 250 g ai/ha) was 85%. The plant injury at 31 g/ha ([12]; 31 g ai/ha) was 5%, the plant injury at 62 g/ha ([12]; 62 g ai/ha) was 20% and the plant injury at 125 g/ha ([12]; 125 g ai/ha) was 45%. The plant injury at 250 g/ha ([12]; 250 g ai/ha) was 70%, the pest or weed control at 31 g/ha ([13]; 31 g ai/ha) was 65% and the pest or weed control at 62 g/ha ([13]; 62 g ai/ha) was 95%. For the same compound, the pest or weed control at 125 g/ha ([13]; 125 g ai/ha) was 100%, the pest or weed control at 250 g/ha ([13]; 250 g ai/ha) was 100% and the pest or weed control at 31 g/ha ([14]; 31 g ai/ha) was 100%. For the same compound, the pest or weed control at 62 g/ha ([14]; 62 g ai/ha) was 100%, the pest or weed control at 125 g/ha ([14]; 125 g ai/ha) was 100% and the pest or weed control at 250 g/ha ([14]; 250 g ai/ha) was 100%. For the same compound, the plant injury at 31 g/ha ([15]; 31 g ai/ha) was 0%, the plant injury at 62 g/ha ([15]; 62 g ai/ha) was 45% and the plant injury at 125 g/ha ([15]; 125 g ai/ha) was 40%. The plant injury at 250 g/ha ([15]; 250 g ai/ha) was 85%, the pest or weed control at 31 g/ha ([16]; 31 g ai/ha) was 0% and the pest or weed control at 62 g/ha ([16]; 62 g ai/ha) was 10%. For the same compound, the pest or weed control at 125 g/ha ([16]; 125 g ai/ha) was 55%, the pest or weed control at 31 g/ha ([17]; 31 g ai/ha) was 5% and the pest or weed control at 62 g/ha ([17]; 62 g ai/ha) was 5%. It also gave a pest or weed control at 125 g/ha ([17]; 125 g ai/ha) of 15%, a pest or weed control at 250 g/ha ([17]; 250 g ai/ha) of 15% and a pest or weed control at 31 g/ha ([18]; 31 g ai/ha) of 40%. The pest or weed control at 62 g/ha ([18]; 62 g ai/ha) was 70%, the pest or weed control at 125 g/ha ([18]; 125 g ai/ha) was 60% and the pest or weed control at 250 g/ha ([18]; 250 g ai/ha) was 85%. The pest or weed control at 31 g/ha ([19]; 31 g ai/ha) was 5%, the pest or weed control at 62 g/ha ([19]; 62 g ai/ha) was 15% and the pest or weed control at 125 g/ha ([19]; 125 g ai/ha) was 10%. It also gave a pest or weed control at 250 g/ha ([19]; 250 g ai/ha) of 40%, a pest or weed control at 31 g/ha ([20]; 31 g ai/ha) of 80% and a pest or weed control at 62 g/ha ([20]; 62 g ai/ha) of 70%. For the same compound, the pest or weed control at 125 g/ha ([20]; 125 g ai/ha) was 90%, the pest or weed control at 250 g/ha ([20]; 250 g ai/ha) was 95% and the pest or weed control at 31 g/ha ([21]; 31 g ai/ha) was 30%. The pest or weed control at 62 g/ha ([21]; 62 g ai/ha) was 35%, the pest or weed control at 125 g/ha ([21]; 125 g ai/ha) was 40% and the pest or weed control at 250 g/ha ([21]; 250 g ai/ha) was 70%. The pest or weed control at 31 g/ha ([22]; 31 g ai/ha) was 5%, the pest or weed control at 62 g/ha ([22]; 62 g ai/ha) was 5% and the pest or weed control at 125 g/ha ([22]; 125 g ai/ha) was 5%. The pest or weed control at 250 g/ha ([22]; 250 g ai/ha) was 20%.
